pIC50: −log10 of the molar value. “Also recorded” adds a separate entry of the source. Where two headings read alike, the source gives them in different places.

The source of these data is patent EP3064205A1, “Therapeutic use of isomeric forms of 2-(4-chlorophenyl)quinolin-4-yl)(piperidin-2-yl)methanol” (Glionova AB, priority 2015, dated 2016).

Data set [1] in a line: Pharmacokinetic evaluation in mice (plasma and brain). The class given is in vivo, male NMRI mice. As to conditions: for Kp / Tmax / Cmax: male, NMRI, mouse; for Kp: brain/plasma, single oral administration of 20 mg/kg. The procedure:
Compounds S1 and S2 were formulated at 0.4 mg/mL in 7.5% NMP, 10% Kolliphor in 0.9% NaCl (for i.v. administration) and at 2.0 mg/mL in 0.1% Tween 80, 0.5% Na-CMC in water (for p.o. administration).
The pharmacokinetic properties of S1 and S2 were determined in male NMRI mice (Charles River, Germany) following single intravenous (i.v., tail vein, 2 mg/kg) or per oral (p.o, gavage, 20 mg/kg). Light isoflurane anaesthesia was used at i.v. administration, no anaesthesia was used at p.o. administration. Blood samples were kept on ice after sampling and centrigued at +4 °C, 1800 x g for 5 minutes to prepare plasma. Blood and homogenized brain samples were taken from animals at the following nominal time points: 15, 30, and 60 minutes, and 2, 4, 6, 8, 24, 48, 72 and 144 hours after dosing (n=3 samples/time-point). Blood sampling (400-600 microliters) was performed by orbital plexus collection under isoflurane anaesthesia into EDTA plasma tubes (BD Microtainer K2EDTA). Bioanalytical quantification of S1 and S2 was analysed in plasma and brain samples by a UPLC-MS/MS. Pharmacokinetics were calculated by non-compartmental analysis (NCA) from composite (mean) profiles using Phoenix WinNonlin Professional (v 6.3). Nominal sampling times and dose levels have been used for the NCA calculations. All animals dosed with S1 and S2 were systemically exposed to the test compound. The plasma and brain concentrations were detectable and analysed until 144 h.
Brain sampling was performed after the end of blood sampling at the specified time points following euthanization and skull extraction. Brains were weighed and placed in test tubes and placed on wet ice. 4 mL PBS (pH 7.4) per 1 g of brain tissue was added to the test tube and brains were then homogenized using an Ultra-Turrax T25 homogenisator (Setting 2, 9500 rpm, 10s). The homogenates were frozen at -20° C immediately after homogenization.

Data set [2] relates to glioblastoma cell line U3013. Kind of data set: ATP viability assay (CellTiter-Glo). The settings on record: U3013, dose response, CellTiterGlo ATP quantification. It counts as cell-based, human. The procedure:
(§1) The human melanoma cell line SK-MEL-28 is a well established reference cell line in melanoma research (Goodfellow M, et al. J. Natl. Cancer Inst. 59: 221-226, 1977). Cells were cultured in MEM supplemented with 10% FCS. Glioblastoma cell line (U3013) was generated directly from patient-derived tumors (Kitambi et al. Cell. 2014: 157(2):313-28) and grown in serum-free media supplemented with N2, B27, EGF, and FGF-2 (20 ng/ml) using previously described methodology (Pollard et al., 2009).
Culture plates were pre-coated with laminin (Sigma) for 3 hr at 10 ug/ml prior to use and confluent cells were split 1:3 to 1:5 using TrypLE Express (Invitrogen).
(§2) Viability assay was conducted in 96 well microtiter plates seeded with 3000 cells. Cell viability was measured using CellTiter-Glo assay (Promega), according to the manufacturer's instructions. Luminescence was measured using Victor3 FA (Perkin Elmer) microtiter plate reader. Total luminescence was normalized relative to negative control and curve fitting performed using GraphPad Prism (v6.02) software. IC50 was determined using Cell Viability assay, and data was illustrated using GraphPad Prism (version 6.02)
On the technique in general: In ATP-based viability assays light output follows the ATP content of the culture.

A further data set relates to SK-Mel-28. The experiment in a line: ATP viability assay (CellTiter-Glo). The class given is cell-based. As to conditions: Homo sapiens. The procedure:
as §1, §2

Data set [3] deals with SK-Mel-28 cells. Kind of data set: Vacuolization, bright field microscopy. The settings on record: SK-Mel-28, 5µM or 10µM, 18h. The class given is cell-based, human. On the procedure:
as §1
(§3) Cells were plated on glass slides and were treated with compound at the indicated concentrations for 18h before imaging. Digital images were taken using a Veleta camera (Olympus Soft Imaging Solutions).

Data set [4] relates to Panc-1 cells. Kind of data set: Vacuolization, bright field microscopy. It counts as cell-based, human. The settings on record: Panc-1, 5µM or 10µM, 18h.
From the text: The following well-characterized human pancreatic ductal adenocarcinoma cell lines (ATCC) were used: HPAF II, BxPC-3, MIA-PaCa2 and Panc-1. These cell lines were generated from patient-derived tumors and are widely used model system to study pancreatic cancer (HPAF II: Kim YW, et al. Pancreas 4: 353-362, 1989; BxPC-3: Tan MH, et al. Cancer Invest. 4: 15-23, 1986; MIA-PaCa2: Yunis AA, et al. Int. J. Cancer 19: 128-135, 1977; Pacn-1: Lieber M, et al. Int. J. Cancer 15: 741-747, 1975).
as §3

In the next data set the test system is KPC cells. Kind of data set: Vacuolization, bright field microscopy. As to conditions: 5µM (3.3 µM elsewhere in the source) or 10µM, 18h. The class given is cell-based, mouse. On the procedure:
as §3

The subject of data set [5] is Panc-1 cells. Kind of data set: Long term toxicity (viability assay up to 25 days). The class given is cell-based, human. The procedure: as §2
(§4) SK-Mel-28 and Panc-1 cells were plated on 96 well plates. Three hours post-seeding, cells were treated with 10 µM, 1 µM, 0.1 µM and 0.01 µM of S2 or vehicle (DMSO). Viability assay was conducted after 24 h, 72 h, 5 days, 10 days, 15 days, 20 days and 25 days, as described above. Media was changed every two days. […] Cell viability at each concentration was quantified relative to DMSO control at any time point (each time point had its own control), and was presented as fraction of control. Each treatment and the adequate control and was performed in 3, 4 and 6 repeats. Error bars indicate standard error (SE).
as §4, with “Vacquionol-1 SR (S2)” for “S2”

Data set [6] has as its system SK-Mel-28 cells. The experiment in a line: Long term toxicity (viability assay up to 25 days). The class given is cell-based, human. The procedure:
as §2, §4
as §4, with “Vacquionol-1 SR (S2)” for “S2”

Consider `O[C@@H](c1cc(-c2ccc(Cl)cc2)nc2ccccc12)[C@H]1CCCCN1` [S2, (S)-(2-(4-chlorophenyl)quinolin-4-yl)((R)-piperidin-2-yl)methanol], for which the “Brain AUC last” value amounted to 9050 ng·h/mL in data set [1] (brain, i.v., 2 mg/kg) and 157000 ng·h/mL in data set [1] (brain, p.o., 20 mg/kg). Further, the “Brain Cmax” value in data set [1] (brain, i.v., 2 mg/kg) amounted to 777 ng/mL; in data set [1] (brain, p.o., 20 mg/kg) it was 1490 ng/mL. Moreover, the “Brain tlast” value in data set [1] (brain, i.v., 2 mg/kg) was found to be 72 h; in data set [1] (brain, p.o., 20 mg/kg) it was 144 h. Further, the Kp was 0.9 in data set [1] (po, 20 mg/kg, read-out: exposure ratio AUC(brain/plasma)) and 0.7 in data set [1] (po, 20 mg/kg, read-out: exposure ratio Cmax(brain/plasma)). The Tmax – broadly, the time from dosing to the highest level – in data set [1] (iv, brain, i.v., 2 mg/kg, read-out: Brain tmax) was 1 h; in data set [1] (iv, plasma, i.v., 2 mg/kg, read-out: Plasma tmax) it was 0.5 h; in data set [1] (po, brain, p.o., 20 mg/kg, read-out: Brain tmax), 6 h; in data set [1] (po, plasma, p.o., 20 mg/kg, read-out: Plasma tmax), 8 h. In addition, the Cmax (commonly the highest concentration seen after dosing) in data set [1] (iv, plasma, 2 mg/kg) was determined as 455 ng/mL; in data set [1] (po, plasma, 20 mg/kg) it was 2050 ng/mL. The “Plasma AUC last” value in data set [1] (plasma, i.v., 2 mg/kg) came out at 14100 ng·h/mL; in data set [1] (plasma, p.o., 20 mg/kg) it was 183000 ng·h/mL. Also, the “Plasma tlast” value in data set [1] (plasma, i.v., 2 mg/kg) is 72 h; in data set [1] (plasma, p.o., 20 mg/kg), 144 h. Besides, in data set [2], the “in vitro cytotoxicity, comparison of isolated isomers” value (shortened to “in vitro cytotoxicity, comparison”) is “S1 and S2 exhibit greater in vitro oncolytic potency than the corresponding S3 and S4 isomers; also recorded: S1 and S2 exhibit higher cytotoxicity on cancer cells than S3 and S4”. In addition, the pIC50 (commonly −log10 of the IC50, conventionally taken in molar units) was 5.44 in the data set on SK-Mel-28 (SK-MEL-28, 24 h); 5.62 with SK-Mel-28 (SK-MEL-28, 48 h); 5.68 with SK-Mel-28 (SK-MEL-28, 72 h). Moreover, the vacuole formation result was “stimulate vacuole formation” in the data set with SK-Mel-28 cells [3]; “stimulates vacuole formation” in the data set with SK-Mel-28 cells [3] (listed as Vacquinol-1 SR (S2)); “stimulate vacuole formation” in the data set with Panc-1 cells [4]; “stimulates vacuole formation” in the data set with Panc-1 cells [4] (listed as Vacquinol-1 SR (S2)); “stimulate vacuole formation” in the data set on KPC cells; “stimulates vacuole formation” in the data set with KPC cells (listed as Vacquinol-1 SR (S2)). Further, the long term toxicity entry in the data set on Panc-1 cells [5] (Panc-1, 10, 1, 0.1, 0.01 µM, up to 25 days) is on record as “dose-dependent cytotoxic effect”; in the data set on SK-Mel-28 cells [6] (SK-Mel-28, 10, 1, 0.1, 0.01 µM, up to 25 days) it was “dose-dependent cytotoxic effect”. Also, the “long term toxicity, lower concentrations” value was “complete death” with Panc-1 cells [5] (Panc-1, long term exposure, 1µM) and “complete death of the cells” in the data set on SK-Mel-28 cells [6] (SK-Mel-28, long term exposure of lower concentrations).

For `O[C@H](c1cc(-c2ccc(Cl)cc2)nc2ccccc12)[C@H]1CCCCN1` [S3, (R)-(2-(4-chlorophenyl)quinolin-4-yl)((R)-piperidin-2-yl)methanol], the “in vitro cytotoxicity, comparison” value in data set [2] was “S1 and S2 exhibit greater in vitro oncolytic potency than the corresponding S3 and S4 isomers; also recorded: S1 and S2 exhibit higher cytotoxicity on cancer cells than S3 and S4”.

With `O[C@@H](c1cc(-c2ccc(Cl)cc2)nc2ccccc12)[C@@H]1CCCCN1` [S4, (S)-(2-(4-chlorophenyl)quinolin-4-yl)((S)-piperidin-2-yl)methanol], in data set [2], the “in vitro cytotoxicity, comparison” value was “S1 and S2 exhibit greater in vitro oncolytic potency than the corresponding S3 and S4 isomers; also recorded: S1 and S2 exhibit higher cytotoxicity on cancer cells than S3 and S4”.
